Results: patent US10900091B2, “miR-133a as a marker for colorectal cancer” (The Chinese University of Hong Kong, priority 2019, dated 2021)
“Also recorded” adds a separate entry of the source.

Key:
stage IV CRC patients = test: Response of stage IV CRC patients to oxaliplatin-based first-line treatment (RECIST); type: in vivo, human; conditions: 42 stage IV CRC patients, oxaliplatin-based first-line therapy
Excerpt: A cohort of 42 pairs of tumor and adjacent normal tissue FFPE blocks obtained from stage IV CRC patients who had received oxaliplatin-based treatment as first-line therapy at Prince of Wales Hospital between 2003 and 2010, and with known clinico-oncologic outcomes were identified from the prospectively collected database. Patients were classified into responders and non-responders group according to RECIST guideline (7). Responders are defined as the patients achieving complete response (CR) and partial response (PR), and non-responder group as patients with stable disease (SD) and progressive disease (PD). Overall survival (OS) was calculated from the operation day to the date of death or the last visit with censoring. The progress free survival (PFS) during first-line chemotherapy was determined from the operation day to the first-line progression as documented by either CT scan, positron emission tomography/CT scan, or Carcinoembryonic antigen (CEA). Forty-six mCRC patients received oxaliplatin-based treatment as first-line therapy at Beijing Oncology Hospital were used as a validation cohort (BJ cohort). […]
miR-133a level was next evaluated in 42 pairs paraffin blocks of tumor and adjacent normal tissues from stage IV CRC patients who had received oxaliplatin-based treatment. […]

[1] = system: CRC cell lines (HT29, SW1116, HCT116, HCT116p53−/−, RKO, DLD1); test: MTT cell viability assay: oxaliplatin sensitization after ectopic miR-133a expression; type: cell-based, human; conditions: CRC cell lines with ectopic expression of miR-133a; oxaliplatin treatment; FIG. 4
Description: (§1) Human miR-133a precursor (PM10413) was purchased from Thermo Fisher Scientific. […] Cells were transfected with miRNAs using Lipofectamine 2000 (Invitrogene). Cells transfected with miRNA were harvested 12 h to 48 h post-transfection.
After 24 h of transfection, cells were collected and seeded (500-1000/well) in a fresh 96-well plate for 5 days. Cell viability was determined using the conversion of 3-(4,5-dimethylthiazol-2-yl)-2,5-diphenyltetrazolium bromide (MTT) to formazan via mitochondrial oxidation. MTT solution was then added to each well at a final concentration of 0.2 mg/ml per well and the plates were incubated at 37° C. for another 1 h. After incubation, 200 μl of dimethyl sulfoxide was added to each well to dissolve the formazan formed and the absorbance was measured at 570 nm using a spectrophotometer. All the experiments were repeated in three independent experiments in triplicate.
To validate the role of miR-133a in oxaliplatin sensitization in vitro, miR-133a was expressed in the microsatellite stable (HT29, SW1116) and microsatellite instable CRC cell lines (HCT116, HCT116^p53−/−, RKO, DLD1), respectively. 50% inhibitory concentration (IC50) of each cell lines was calculated by means of MTT assay. Restoration of miR-133a was sufficient to result in a 1.5 to 2.9 fold sensitization to oxaliplatin treatment in all the tested cell lines (FIG. 4).

human ATP7B 3′-UTR = test: Dual-luciferase reporter assay, ATP7B 3′UTR; type: cell-based
Description: (§2) Wild-type or mutanted human ATP7B, ABCC1 and GCLC 3′-UTR were cloned into pMIR-REPORT vector (Thermo Fisher Scientific) at the SacI and SpeI sites, respectively. Co-transfection of reporter plasmids and miRNA in 24-well plates were carried out with lipofectamine 2000 as described by the manufacture. Per well, 195 ng luciferase report plasmid, 5 ng pRL-cytomegalovirus (CMV) vector and 15 pmole miRNA were applied. Cells were harvested 48 h post-transfection and luciferase activities were analyzed by the dual-luciferase reporter assay system (Promega, Madison, Wis.).
(§3) To characterize the chemosensitizing property of miR-133a to oxaliplatin treatment, miR-133a targets that regulated the metabolism of oxaliplatin were searched for. Increased drug efflux and activation of detoxification system are two major aspects that induce Platinum-based drugs resistance (15). Previous studies indicate that ATPase Cu++ transporting beta polypeptide (ATP7B), ATP-binding cassette sub-family C member 1 (ABCC1) and γ-glutamylcysteine liganse (GCLC) regulated Platinum-based drugs efflux and detoxification (16-21). […] Furthermore, their predicted 3′UTR binding sites, as well as their mutant form, were attached to firefly luciferase reporter gene, respectively. miR-133a repressed wild-type ATP7B, ABCC1, and GCLC-3′UTR reporter activity for about 64%, 56% and 42%, respectively (FIG. 5A, P<0.05).

human ABCC1 3′-UTR = test: Dual-luciferase reporter assay, ABCC1 3′UTR; type: cell-based
Description: as §2, §3

human GCLC 3′-UTR = test: Dual-luciferase reporter assay, GCLC 3′UTR; type: cell-based
Description: as §2, §3

ATP7B = test: Endogenous ATP7B expression after miR-133a transfection (qPCR, western blot); type: cell-based, human
Description: as §1
(§4) Protein concentration was measured by the Bradford DC protein assay (Bio-Rad, Hercules, Calif.). 5-20 μg of protein from each sample were separated on 10% Bis-Tris-polyacrylamide gel through electrophoresis and blotted onto nitrocellulose membranes (GE Healthcare, Piscataway, N.J.). Blots were immunostained with primary antibodies at 4° C. overnight and secondary antibody at room temperature for 1 h. Protein was visualized using ECL Plus Western Blotting Detection Reagents (GE Healthcare). Independent experiments were performed at least twice.
(§5) To characterize the chemosensitizing property of miR-133a to oxaliplatin treatment, miR-133a targets that regulated the metabolism of oxaliplatin were searched for. Increased drug efflux and activation of detoxification system are two major aspects that induce Platinum-based drugs resistance (15). Previous studies indicate that ATPase Cu++ transporting beta polypeptide (ATP7B), ATP-binding cassette sub-family C member 1 (ABCC1) and γ-glutamylcysteine liganse (GCLC) regulated Platinum-based drugs efflux and detoxification (16-21). […]

ABCC1 = test: Endogenous ABCC1 expression after miR-133a transfection (qPCR, western blot); type: cell-based, human
Description: as §1, §4, §5

GCLC = test: Endogenous GCLC expression after miR-133a transfection (qPCR, western blot); type: cell-based, human
Description: as §1, §4, §5

[2] = qPCR, HCT116 and DLD1 (also HEK293)
[3] = western blot, HCT116, DLD1 and HEK293 (293T in the source)

Row | Compound | objective response rate (stage IV CRC patients) [%] | IC50 compared with the control group [1] | effect on mutant ATP7B-3′UTR reporter activity (human ATP7B 3′-UTR; mutant 3′UTR) | repression of wild-type ATP7B-3′UTR reporter activity (human ATP7B 3′-UTR; wild-type 3′UTR, P<0.05) | effect on mutant ABCC1-3′UTR reporter activity (human ABCC1 3′-UTR; mutant 3′UTR) | repression of wild-type ABCC1-3′UTR reporter activity (human ABCC1 3′-UTR; wild-type 3′UTR, P<0.05) [%] | effect on mutant GCLC-3′UTR reporter activity (human GCLC 3′-UTR; mutant 3′UTR) | repression of wild-type GCLC-3′UTR reporter activity (human GCLC 3′-UTR; wild-type 3′UTR, P<0.05) [%] | ATP7B mRNA level (ATP7B; [2]) | ATP7B protein level (ATP7B; [3]) | ABCC1 mRNA level (ABCC1; [2]) | ABCC1 protein level (ABCC1; [3]) | GCLC mRNA level (GCLC; [2]) | GCLC protein level (GCLC; [3])
1 | O=C1[O][Pt]2([NH][C@@H]3CCCC[C@H]3[NH]2)[O]C1=O [oxaliplatin, Oxaliplatin] | 29 |  |  |  |  |  |  |  |  |  |  |  |  | 
2 | hsa-miR-133a-3p (UUUGGUCCCCUUCAACCAGCUG; precursor form, further chemistry not given here; listed as Homo sapiens) [Human miR-133a precursor purchased from Thermo Fisher Scientific, transfected into cells] |  | lower | no inhibition effect | about 64% | no inhibition effect | ~56 | no inhibition effect | ~42 | significantly suppressed; also recorded: remarkably reduced; also recorded: decreased | remarkably reduced; also recorded: decreased | significantly suppressed; also recorded: remarkably reduced; also recorded: decreased | remarkably reduced; also recorded: decreased | significantly suppressed; also recorded: remarkably reduced; also recorded: decreased | remarkably reduced; also recorded: decreased
